Here are results for one compound from patent US20070136834A1, “Method and system for real-time analysis of biosensor data” (priority 2005, published 2007).

In the test the test system is naturally-occurring algae. In words: Variable chlorophyll fluorescence induction of naturally-occurring algae in Clinch River water, differential displacement (least-squares) analysis against control curve. Type of test: cell-based.

The structures appear in SMILES notation.

Source text: Primary-source drinking water is monitored at regular intervals, for example every three to five minutes. • 2. Each (analog) chlorophyll fluorescence induction curve that is acquired for each interval is digitized and stored. The shape of each curve is a recording of the physiological status of the algae at that point in time. • 3. For each subsequent recording, such as three to five minutes later, the variable chlorophyll fluorescence induction curve at that time can be compared with the curve that was recorded three to five minutes earlier. • 4. By using a nonlinear least-squares fit of the current data with the previous curve, a quantitative assessment can be made that determines the degree of departure of the current curve as compared to its predecessor. • 5. Based on an algorithm, such as algorithms described herein, an objective real-time assessment of the degree of departure is obtained between the variable fluorescence curves and the correlation of that departure with the possible presence of toxins in the water.
Data analysis typically comprises three steps. […] Third, the set of numbers that comprises the transformation coefficient is analyzed for specific patterns analyzed by custom software to detect “fingerprints” for specific toxins such as chemical toxins. […]

For the compound `COP(=S)(OC)Oc1ccc([N+](=O)[O-])cc1` [methyl parathion], the “effect on shape of variable fluorescence induction curve” value is on record as “change the shape of the variable fluorescence induction curve”.
